Source: patent publication US7968548B2, “Melanocortin receptor-specific piperazine compounds with diamine groups” (Palatin Technologies, Inc., priority 2005, dated 2011)
Where “and” joins values, the source holds several entries; their conditions need not be identical. Identical values can stand only once.

Experiments:
MC3-R = target: T1, MC3-R (Homo sapiens, UniProt P41968); test: Competitive inhibition binding assay using [I125]-NDP-α-MSH, HEK-293 membranes, recombinant hMC3-R; conditions: for inhibition at 1 µM: 1 μM compound
T1 construct: expressed in transfected cells; host or cells: HEK-293
Description: (§1) A competitive inhibition binding assay was performed using membrane homogenates prepared from HEK-293 cells that express recombinant hMC4-R, hMC3-R, or hMC5-R, and from B-16 mouse melanoma cells (containing endogenous MC1-R). In some instances, HEK-293 cells that express recombinant hMC1-R were employed. In the examples that follow, all MC3-R, MC4-R and MC5-R values are for human recombinant receptors. MC1-R values are for B-16 mouse melanoma cells, unless the heading is “hMC1-R”, in which case the value is for human recombinant MC1-R. Assays were performed in 96 well GF/B Millipore multiscreen filtration plates (MAFB NOB10) pre-coated with 0.5% bovine serum albumin (Fraction V). […] After incubation for 60 minutes at 37° C., the assay mixture was filtered and the membranes washed three times with ice-cold buffer. Filters were dried and counted in a gamma counter for bound radioactivity. […] Maximal specific binding (100%) was defined as the difference in radioactivity (cpm) bound to cell membranes in the absence and presence of 1 μM NDP-α-MSH. […] Each assay was conducted in triplicate and the actual mean values are described, with results less than 0% reported as 0%. Ki values for test compounds were determined using Graph-Pad Prism® curve-fitting software.

MC4-R = MC4-R (Homo sapiens, UniProt P32245); test: Competitive inhibition binding assay using [I125]-NDP-α-MSH, HEK-293 membranes, recombinant hMC4-R; design: expressed in transfected cells; host or cells: HEK-293; conditions: for inhibition at 1 µM: 1 μM compound
Description: as §1

hMC1-R = target: T2, hMC1-R (Homo sapiens, UniProt Q01726); test: Competitive inhibition binding assay using [I125]-NDP-α-MSH, HEK-293 membranes, recombinant hMC1-R; conditions: human recombinant MC1-R; for inhibition at 1 µM: 1 μM compound
T2 construct: expressed in transfected cells; host or cells: HEK-293
Description: as §1

MC5-R = target: T3, MC5-R (Homo sapiens, UniProt P33032); test: Competitive inhibition binding assay using [I125]-NDP-α-MSH, HEK-293 membranes, recombinant hMC5-R; conditions: for inhibition at 1 µM: 1 μM compound
T3 construct: expressed in transfected cells; host or cells: HEK-293
Description: as §1

T1 sequence (P41968 whole entry): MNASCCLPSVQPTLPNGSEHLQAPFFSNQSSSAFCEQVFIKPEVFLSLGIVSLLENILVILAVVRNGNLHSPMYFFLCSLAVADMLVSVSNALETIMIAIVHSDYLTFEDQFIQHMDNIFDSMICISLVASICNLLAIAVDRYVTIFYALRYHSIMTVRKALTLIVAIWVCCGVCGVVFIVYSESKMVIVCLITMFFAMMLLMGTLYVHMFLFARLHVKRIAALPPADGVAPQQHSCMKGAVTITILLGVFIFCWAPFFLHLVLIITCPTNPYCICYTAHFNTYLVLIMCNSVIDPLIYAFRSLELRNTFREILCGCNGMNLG
T2 sequence (Q01726 whole entry): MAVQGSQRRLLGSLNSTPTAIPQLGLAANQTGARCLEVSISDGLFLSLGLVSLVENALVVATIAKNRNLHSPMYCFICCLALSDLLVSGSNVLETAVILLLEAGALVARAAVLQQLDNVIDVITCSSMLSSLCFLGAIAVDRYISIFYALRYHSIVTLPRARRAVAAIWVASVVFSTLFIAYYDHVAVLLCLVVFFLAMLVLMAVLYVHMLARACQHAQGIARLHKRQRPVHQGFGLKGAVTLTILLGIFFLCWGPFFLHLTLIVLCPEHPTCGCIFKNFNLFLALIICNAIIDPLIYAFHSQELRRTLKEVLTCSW
T3 sequence (P33032 whole entry): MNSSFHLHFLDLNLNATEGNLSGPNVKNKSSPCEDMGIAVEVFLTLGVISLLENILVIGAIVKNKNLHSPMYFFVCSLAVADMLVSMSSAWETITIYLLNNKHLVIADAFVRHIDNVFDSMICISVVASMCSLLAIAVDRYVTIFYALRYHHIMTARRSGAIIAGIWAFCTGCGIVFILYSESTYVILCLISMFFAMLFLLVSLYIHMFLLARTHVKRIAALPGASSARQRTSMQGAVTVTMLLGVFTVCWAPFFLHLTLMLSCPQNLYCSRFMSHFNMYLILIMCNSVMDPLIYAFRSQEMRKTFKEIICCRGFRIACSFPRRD
MC4-R, sequence (P32245 whole entry): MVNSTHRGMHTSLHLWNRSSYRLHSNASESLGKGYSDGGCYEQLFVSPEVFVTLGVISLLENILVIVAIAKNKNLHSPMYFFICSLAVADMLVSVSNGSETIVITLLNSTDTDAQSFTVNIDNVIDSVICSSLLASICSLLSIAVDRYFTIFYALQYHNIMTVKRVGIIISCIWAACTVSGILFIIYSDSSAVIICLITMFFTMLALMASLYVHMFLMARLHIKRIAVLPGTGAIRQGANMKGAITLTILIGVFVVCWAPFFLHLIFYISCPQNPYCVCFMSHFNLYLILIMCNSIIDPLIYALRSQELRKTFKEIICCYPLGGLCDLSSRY

| SMILES | inhibition at 1 µM (MC3-R) [%] | Ki (MC4-R) | inhibition at 1 µM (MC4-R) [%] | inhibition at 1 µM (hMC1-R) [%] | inhibition at 1 µM (MC5-R) [%] | Ki (MC3-R) [nM] | Ki (hMC1-R) [nM] | Ki (MC5-R) [nM] |
| --- | --- | --- | --- | --- | --- | --- | --- | --- |
| NCCNCCC[C@H]1CN(C(=O)[C@H](N)Cc2ccc(Cl)cc2Cl)[C@H](CC2CCCCC2)CN1C(=O)[C@H](N)Cc1ccc(Cl)cc1Cl [Example 15, (R)-2-Amino-1-{(2R,5S)-4-[(R)-2-amino-3-(2,4-dichloro-phenyl)-propionyl]-5-[3-(2-amino-ethylamino)-propyl]-2-cyclohexylmethyl-piperazin-1-yl}-3-(2,4-dichloro-phenyl)-propan-1-one] | 36 | 74 nM | 83 | 27 | 31 |  |  |  |
| Cc1ccc(C[C@@H](N)CN2C[C@@H](C)N(C(=O)Cc3ccc4ccccc4c3)C[C@@H]2Cc2ccc(NCCN)cc2)c(C)c1 [Example 11, 1-{(2R,5S)-4-[(R)-2-Amino-3-(2,4-dimethyl-phenyl)-propyl]-5-[4-(2-amino-ethylamino)-benzyl]-2-methyl-piperazin-1-yl}-2-naphthalen-2-yl-ethanone] | 29 |  | 39 | 3 | 36 |  |  |  |
| Cc1ccc(C[C@@H](N)C(=O)N2C[C@H](CCCNCCN)N(C(=O)[C@H](N)Cc3ccc(C)cc3C)C[C@H]2CC2CCCCC2)c(C)c1 [Example 14, (R)-2-Amino-1-{(2R,5S)-4-[(R)-2-amino-3-(2,4-dimethyl-phenyl)-propionyl]-5-[3-(2-amino-ethylamino)-propyl]-2-cyclohexylmethyl-piperazin-1-yl}-3-(2,4-dimethyl-phenyl)-propan-1-one] | 22 | 81 nM | 83 | 35 | 43 |  |  |  |
| Cc1ccc(C[C@@H](N)C(=O)N2C[C@H](CCCNCCN)N(C(=O)[C@H](N)Cc3ccc(C)cc3C)C[C@H]2CC(C)C)c(C)c1 [Example 17, (R)-2-Amino-1-{(2S,5R)-4-[(R)-2-amino-3-(2,4-dimethyl-phenyl)-propionyl]-2-[3-(2-amino-ethylamino)-propyl]-5-isobutyl-piperazin-1-yl}-3-(2,4-dimethyl-phenyl)-propan-1-one] | 14 | 60 nM | 83 | 22 | 38 |  |  |  |
| CC(C)C[C@@H]1CN(C(=O)[C@H](N)Cc2ccc(Cl)cc2Cl)[C@@H](CCCCNCCN)CN1C(=O)[C@H](N)Cc1ccc(Cl)cc1Cl [Example 19, (R)-2-Amino-1-{(2R,5S)-4-[(R)-2-amino-3-(2,4-dichloro-phenyl)-propionyl]-5-[4-(2-amino-ethylamino)-butyl]-2-isobutyl-piperazin-1-yl}-3-(2,4-dichloro-phenyl)-propan-1-one] | 59 | 36 nM | 97 | 36 | 47 | 327 | 754 | 296 |
| NCCNCCCC[C@H]1CN(C(=O)[C@H](N)Cc2ccc(Cl)cc2Cl)[C@H](CC2CCCCC2)CN1C(=O)[C@H](N)Cc1ccc(Cl)cc1Cl [Example 24, (R)-2-Amino-1-{(2R,5S)-4-[(R)-2-amino-3-(2,4-dichloro-phenyl)-propionyl]-5-[4-(2-amino-ethylamino)-butyl]-2-cyclohexylmethyl-piperazin-1-yl}-3-(2,4-dichloro-phenyl)-propan-1-one] |  | 17 nM |  |  |  | 443 | 270 | 139 |
| NCCNCCC[C@H]1CN(C(=O)[C@H](N)Cc2ccc3ccccc3c2)[C@H](CC2CCCCC2)CN1C(=O)[C@H](N)Cc1ccc2ccccc2c1 [Example 16, (R)-2-Amino-1-[(2R,5S)-5-[3-(2-amino-ethylamino)-propyl]-4-((R)-2-amino-3-naphthalen-2-yl-propionyl)-2-cyclohexylmethyl-piperazin-1-yl]-3-naphthalen-2-yl-propan-1-one] |  | 99 nM and 81 nM |  |  |  | 36 | 22 | 30 |

Other lines, results leading:

| inhibition at 1 µM (MC3-R) [%] | Ki (MC4-R) | inhibition at 1 µM (MC4-R) [%] | inhibition at 1 µM (hMC1-R) [%] | inhibition at 1 µM (MC5-R) [%] | Ki (MC3-R) [nM] | Ki (hMC1-R) [nM] | Ki (MC5-R) [nM] | SMILES |
| --- | --- | --- | --- | --- | --- | --- | --- | --- |
| 89 | 41 nM | 98 | 67 | 93 |  |  |  | C[C@@H]1CN(C(=O)[C@H](N)Cc2ccc(Cl)cc2Cl)[C@@H](CCCNCCN)CN1C(=O)[C@H](N)Cc1ccc(Cl)cc1Cl [Example 25, (R)-2-Amino-1-{(2R,5S)-4-[(R)-2-amino-3-(2,4-dichloro-phenyl)-propionyl]-5-[3-(2-amino-ethylamino)-propyl]-2-methyl-piperazin-1-yl}-3-(2,4-dichloro-phenyl)-propan-1-one] |
| 94 | 19 nM | 96 | 77 | 84 |  |  |  | C[C@@H]1CN(C(=O)[C@H](N)Cc2ccc(Cl)c(Cl)c2)[C@@H](CCCNCCN)CN1C(=O)[C@H](N)Cc1ccc(Cl)c(Cl)c1 [Example 28, (R)-2-Amino-1-{(2R,5S)-4-[(R)-2-amino-3-(3,4-dichloro-phenyl)-propionyl]-5-[3-(2-amino-ethylamino)-propyl]-2-methyl-piperazin-1-yl}-3-(3,4-dichloro-phenyl)-propan-1-one] |
| 65 |  | 91 | 33 | 84 |  |  |  | CC(C)C[C@@H]1CN(C[C@H](N)Cc2ccc(Cl)cc2Cl)[C@@H](CCCNCCCN)CN1C(=O)Cc1ccc2ccccc2c1 [Example 29, 1-{(2R,5S)-4-[(R)-2-Amino-3-(2,4-dichloro-phenyl)-propyl]-5-[3-(3-amino-propylamino)-propyl]-2-isobutyl-piperazin-1-yl}-2-naphthalen-2-yl-ethanone] |
| 57 | 64 nM | 96 | 53 | 76 |  |  |  | Cc1ccc(C[C@@H](N)C(=O)N2C[C@@H](C)N(C(=O)[C@H](N)Cc3ccc(C)cc3C)C[C@@H]2CCCNCCN)c(C)c1 [Example 26, (R)-2-Amino-1-{(2R,5S)-4-[(R)-2-amino-3-(2,4-dimethyl-phenyl)-propionyl]-5-[3-(2-amino-ethylamino)-propyl]-2-methyl-piperazin-1-yl}-3-(2,4-dimethyl-phenyl)-propan-1-one] |
| 65 |  | 91 | 37 | 84 |  |  |  | CC(C)C[C@@H]1CN(C[C@H](N)Cc2ccc(Cl)cc2Cl)[C@@H](CCCNCCCCN)CN1C(=O)Cc1ccc2ccccc2c1 [Example 30, 1-{(2R,5S)-5-[3-(4-Amino-butylamino)-propyl]-4-[(R)-2-amino-3-(2,4-dichloro-phenyl)-propyl]-2-isobutyl-piperazin-1-yl}-2-naphthalen-2-yl-ethanone] |
| 59 |  | 91 | 36 | 87 |  |  |  | CC(C)C[C@@H]1CN(C[C@H](N)Cc2ccc(Cl)cc2Cl)[C@@H](CCCNCCCCCN)CN1C(=O)Cc1ccc2ccccc2c1 [Example 31, 1-{(2R,5S)-4-[(R)-2-Amino-3-(2,4-dichloro-phenyl)-propyl]-5-[3-(5-amino-pentylamino)-propyl]-2-isobutyl-piperazin-1-yl}-2-naphthalen-2-yl-ethanone] |
